Test [1] has as its target T1, Sec61-mediated protein translocation (membrane integration of Ii) (Canis lupus familiaris, UniProt P38377).
T1 construct: cell-free translation system supplemented with ER microsomes derived from canine pancreas; from tissue; host or cells: canine pancreas ER microsomes (nuclease-treated); the Ii substrate was translated in vitro from T7-transcribed RNA
Put plainly: In vitro membrane insertion assay of Ii with ER microsomes. Format: biochemical, canine. The text has this:
Having previously established that the principal molecular basis for the cytotoxicity of Ipom-F is its strong, yet reversible, binding to Sec61α and the resultant wide-ranging blockade of Sec61-mediated protein translocation at the ER [13], we sought evidence that this mechanism also underlies the cytotoxic effects of 1 and other open-chain analogues. […] For comparative purposes, we analyzed the effects of 2 [13] and two closed-chain compounds: Ipom-F and the diester-modified analogue 22 [11] in parallel (Figure 3A).
Following the resolution of radiolabeled proteins by SDS-PAGE (Figure 3B), we used the efficiency with which the N-terminal domain of the type II integral membrane protein Ii (short form of HLA class II histocompatibility antigen gamma chain, isoform 1) was N-glycosylated inside the ER lumen as a robust reporter for the authentic membrane integration of this model Sec61-dependent protein client (Figure 3B, right upper panel, 0Gly versus 2 Gly forms).
(§1) Linear DNA of the short form of human HLA class II histocompatibility antigen gamma chain (Ii; P04232, […], residues 17–232) or human glycophorin C (GypC; P04921) were generated by PCR and transcribed into RNA using T7 RNA polymerase (Promega). Membrane insertion assays (20 µL, 1 h at 30 °C, containing 6.5% (v/v) nuclease-treated ER microsomes (from stock with OD280 = 44/mL)), endoglycosidase Hf (New England Biolabs) treatment, sample resolution by SDS-PAGE (16% polyacrylamide gels) and gel drying were performed as previously described. Following exposure to a phosphorimaging plate for 24–72 h, radiolabeled products were visualized using a Typhoon FLA-7000 (GE Healthcare, Tokyo, Japan) and the ratio of the signal intensity for the N-glycosylated (XGly) and non-glycosylated (0Gly) forms obtained using AIDA v.5.0 (Raytest Isotopenmeβgeräte). This value was then expressed relative to the matched DMSO control (set to 100%) in order to estimate the mean relative insertion (± SEM) from insertion experiments performed in triplicate (n = 3, biologically independent experiments). IC50 value estimates were determined in Prism 8 (GraphPad, San Diego, CA, USA) using nonlinear regression to fit data to a curve of variable slope (four parameters) using the least-squares fitting method, with the top and bottom plateaus of the curve defined as 100% and 7.67% (the mean of all data at 500 µM across all compounds), respectively.

The next test has as its system MDA-MB-231 cells. Nature of the test: Resazurin-based cytotoxicity assay in MDA-MB-231 cells. The note with it: for IC50: Homo sapiens. Format: cell-based, human. The text has this: (§2) To investigate the impact of ring-opening, we first submitted the open-chain analogue 1 [9] to the National Cancer Institute (NCI) 60-cell line screening (Supplementary Material S1) and determined the cytotoxicity of nine newly synthesized open-chain analogues 4–12 (Figure 2, Supplementary Materials S2 and S3) against MDA-MB-231 cells (Table S1). […] Furthermore, the majority of the nine new open-chain analogues were modestly less cytotoxic towards MDA-MB-231 cells when compared to their direct ring-closed counterparts (analogues 13–21 matching with 4–12; Figures S1 and S2 and Table S1).
The human breast cancer cell line (MDA-MB-231) was maintained in a DMEM high glucose culture medium supplemented with 10% (v/v) fetal bovine serum (FBS) and 2 mM L-glutamine. Parental (Sec61α-WT) HCT-116 (human colorectal cancer cells, ATCC, CCL-247) and mutant (Sec61α-G80W) HCT-116 cells were maintained in McCoy’s 5A (modified) medium ((ThermoFisher, Waltham, MA, USA, 16600-082)) supplemented with 10% (v/v) FBS (Gibco, 10500-064) and 100 units/mL penicillin and […] streptomycin (Gibco, cat: 15140-122). All cell lines were maintained in a 5% CO2 humidified incubator at 37 °C. Cytotoxicity assays were performed in triplicate sets as previously described and viable cells were counted using an automated cell counter (Bio-Rad TC20) immediately before each experiment. Compound stock solutions in DMSO (10 mM) were diluted with supplemented culture media (MDA-MB-231 cells: high glucose DMEM; HCT116 Sec61α-WT and Sec61α-G80W cells: McCoy’s (modified) 5A) to make a series of gradient fresh working solutions at equal DMSO percentage immediately prior to each test. First, […] of cells at a cell density of […] (MDA-MB-231 cells) or 2.5 × 10^4 cells/mL (Sec61α-WT or Sec61α-G80W HCT-116 cells) were seeded in black 96-well microtiter plates (Falcon, product 353219; 2500 cells/well) and incubated at 37° C for 24 h. Subsequently, the cells were treated with either […] of the freshly made gradient working solution in a total volume of […]/well (MDA-MB-231 cells) or 25 mL of freshly made gradient in a total volume of […]/well (Sec61α-WT or Sec61α-G80W HCT-116 cells) at 37 °C for 72 h. For MDA-MB-231 cells, the media were discarded and […] fresh medium containing 10% (v/v) alamarBlue HS cell viability reagent (resazurin stock solution) (ThermoFisher, Waltham, MA, USA, A50100) was added to each well. For Sec61α-WT or Sec61α-G80W HCT-116 cells, the media was not discarded and alamarBlue HS cell viability reagent (resazurin stock solution) (ThermoFisher, Waltham, MA, USA, A50100) was added to 10% (v/v). After that, all cells were incubated at 37 °C for a further 1–3 h and the emission of each well at 620 nm was detected using a Synergy H1 Hybrid multi-mode plate reader (BioTek, Agilent Technologies, Palo Alto, CA, USA) at excitation 580 nm. […] IC50 value estimates were determined using nonlinear regression to fit data to a curve of variable slope (four parameters) using the least-squares fitting method. For HCT-116 cell IC50 curves, the top and bottom plateaus were defined as 100% and 23.70% (the mean of all data at 25 µM across all compounds), respectively.

The test system of a further test is NCI 60-cell line. Nature of the test: NCI 60-cell line screening. It is filed as cell-based, human.
Source text: as §2

The subject of another test is HCT116 Sec61α-WT cells. Nature of the test: Resazurin-based cell viability assay in HCT116 Sec61α-WT cells. More on the design: species or system human. The note with it: HCT116 Sec61α-WT cells; for cell death: 50 nM; for IC50: Homo sapiens, HCT-116. On the procedure: Parental (Sec61α-WT) […] All cell lines were maintained in a 5% CO2 humidified incubator at 37 °C. Cytotoxicity assays were performed in triplicate sets as previously described and viable cells were counted using an automated cell counter (Bio-Rad TC20) immediately before each experiment. Compound stock solutions in DMSO (10 mM) were diluted with supplemented culture media (MDA-MB-231 cells: high glucose DMEM; HCT116 Sec61α-WT and Sec61α-G80W cells: McCoy’s (modified) 5A) to make a series of gradient fresh working solutions at equal DMSO percentage immediately prior to each test. […] For MDA-MB-231 cells, the media were discarded and […] fresh medium containing 10% (v/v) alamarBlue HS cell viability reagent (resazurin stock solution) (ThermoFisher, Waltham, MA, USA, A50100) was added to each well. For Sec61α-WT or Sec61α-G80W HCT-116 cells, the media was not discarded and alamarBlue HS cell viability reagent (resazurin stock solution) (ThermoFisher, Waltham, MA, USA, A50100) was added to 10% (v/v). After that, all cells were incubated at 37 °C for a further 1–3 h and the emission of each well at 620 nm was detected using a Synergy H1 Hybrid multi-mode plate reader (BioTek, Agilent Technologies, Palo Alto, CA, USA) at excitation 580 nm. […] IC50 value estimates were determined using nonlinear regression to fit data to a curve of variable slope (four parameters) using the least-squares fitting method.

Another test has as its system HCT116 Sec61α-G80W cells. Nature of the test: Resazurin-based cell viability assay in HCT116 Sec61α-G80W cells. Details: species or system human. The note with it: 50 nM, 72 h. An excerpt:
To confirm that Sec61α is the primary target of open-chain analogues and that this interaction underlies their cytotoxic effects, we next used a resazurin-based cell viability assay (Figure 3F) to compare the effects of each compound on the growth of HCT-116 cells that were wild-type for Sec61α (HCT116 Sec61α-WT) or carrying a heterozygous point mutant in SEC61A1 (HCT116 Sec61α-G80W) that confers resistance to Ipom-F, and reduces binding of mycolactone to the Sec61 translocon by mechanism that involves an alteration in translocon dynamics.
The human breast cancer cell line (MDA-MB-231) was maintained in a DMEM high glucose culture medium supplemented with 10% (v/v) fetal bovine serum (FBS) and 2 mM L-glutamine. […] Cytotoxicity assays were performed in triplicate sets as previously described and viable cells were counted using an automated cell counter (Bio-Rad TC20) immediately before each experiment. […] After that, all cells were incubated at 37 °C for a further 1–3 h and the emission of each well at 620 nm was detected using a Synergy H1 Hybrid multi-mode plate reader (BioTek, Agilent Technologies, Palo Alto, CA, USA) at excitation 580 nm. […] IC50 value estimates were determined using nonlinear regression to fit data to a curve of variable slope (four parameters) using the least-squares fitting method. […]

The test system of test [2] is membrane integration of GypC. Nature of the test: In vitro membrane insertion assay of GypC with ER microsomes (selectivity control). It is filed as biochemical, canine. The settings on record: 1 µM compound. On the procedure:
Following the successful synthesis of analogue 3, we first analyzed its effects on the in vitro membrane integration of our two model protein substrates, Ii and GypC (Figure 6A–C).
as §1, with “IC50 value estimates were determined in Prism 8 (GraphPad, San Diego, CA, USA) using nonlinear regression to fit data to a curve of variable slope (four parameters) using the least-squares fitting method, with the top and bottom plateaus of the curve defined as 100% and 7.67% (the mean of all data at 500 µM across all compounds), respectively.” left out

Read-outs that look alike come from different tables or passages of the source.

T1 sequence (P60058 whole entry): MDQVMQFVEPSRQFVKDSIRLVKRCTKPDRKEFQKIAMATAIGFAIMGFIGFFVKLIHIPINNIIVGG
T1 sequence (P38377 2-476): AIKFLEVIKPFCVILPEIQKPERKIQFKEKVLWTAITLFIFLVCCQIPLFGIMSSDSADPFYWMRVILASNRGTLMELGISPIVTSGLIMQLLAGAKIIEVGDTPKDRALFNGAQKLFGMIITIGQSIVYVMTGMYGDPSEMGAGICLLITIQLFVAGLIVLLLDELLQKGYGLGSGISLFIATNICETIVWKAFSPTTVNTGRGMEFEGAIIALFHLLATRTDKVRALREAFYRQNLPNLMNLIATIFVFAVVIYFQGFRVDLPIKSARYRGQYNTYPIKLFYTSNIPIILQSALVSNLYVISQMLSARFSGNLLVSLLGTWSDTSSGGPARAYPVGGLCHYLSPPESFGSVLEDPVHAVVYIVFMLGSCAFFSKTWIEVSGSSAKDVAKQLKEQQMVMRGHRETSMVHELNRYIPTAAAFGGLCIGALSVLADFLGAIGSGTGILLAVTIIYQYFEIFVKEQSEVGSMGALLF
T1 sequence (P60467 2-96, further chain): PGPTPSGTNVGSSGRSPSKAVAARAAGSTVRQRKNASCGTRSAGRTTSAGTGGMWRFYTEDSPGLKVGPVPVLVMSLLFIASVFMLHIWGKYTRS

On to `C=CCCCC(=O)CCC(=O)OC[C@H]1O[C@@H](O[C@H]2[C@H](O[C@H](CC=C)CCCCC)O[C@H](C)[C@H](OC(C)=O)[C@@H]2O)[C@H](O)[C@@H](OC(=O)/C(C)=C/C)[C@@H]1OC(=O)/C=C/c1ccccc1` [analogue 1], for which the “inhibition of in vitro membrane integration of Ii” value in test [1] (1 µM compound, versus DMSO control) was “efficiently, albeit variably, inhibited”. The IC50 in test [1] (Table 1, Ii membrane integration, read-out: In Vitro Translocation Inhibition (IC50)) was 0.562 µM; with MDA-MB-231 cells (MDA-MB-231, 72 h, MDA-MB-231 cells, 72 h, read-out: IC50 (cytotoxicity)), around 0.06 µM; with MDA-MB-231 cells (MDA-MB-231, MDA-MB-231 cells, at least three independent experiments, read-out: IC50 ± SD, ring-open) it was 0.059 ± 0.0081 µM; in the test with HCT116 Sec61α-WT cells (Table 1, read-out: Cytotoxicity HCT-116 Cells (IC50)), 0.17 µM. The “loss in potency when compared to Ipom-F” value is 9 fold in the test on MDA-MB-231 cells (MDA-MB-231 cells IC50) and 4–5 fold in the test with NCI 60-cell line (NCI 60-cell line average GI50). Besides, the GI50 in the test on NCI 60-cell line (Homo sapiens, NCI 60-cell line screening, average over cell lines, read-out: average GI50) is around 0.135 µM. In addition, the cell death in the test with HCT116 Sec61α-WT cells (72 h) was 48–64%.

On to `CC=C(C)C(=O)OC1C(O)C(OC2C(OC(CCCCC)CCCCC)OC(C)C(OC(C)=O)C2O)OC(COC(=O)CCC(=O)OCCCC)C1OC(=O)C=Cc1ccccc1` (stereo not drawn) [analogue 3], for which the “reduction in Ii membrane integration” value in test [1] (1 µM compound) is 73–86%. The IC50 in test [1] (estimated from titration 500 µM–5 nM, read-out: IC50 (in vitro membrane integration of Ii)) is 0.242 µM; in the test on HCT116 Sec61α-WT cells (72 h, titration 25 µM–1 nM, read-out: IC50 (cytotoxicity)) it was 0.04 µM. Moreover, the “effect on cell viability” value in the test on HCT116 Sec61α-G80W cells was “cell death was not observed”. In test [2], the “effect on membrane integration of GypC” value is listed as “did not affect”. Further, in the test on HCT116 Sec61α-WT cells (72 h), the cell death is listed as ~ 58%.

The values above are taken from article PMC9320607, “Synthesis, Biological Evaluation and Docking Studies of Ring-Opened Analogues of Ipomoeassin F” (Molecules, 2022).
